How the values were obtained:
C3H10T1/2 cells [1] = assay: Alkaline phosphatase (ALP) enzymatic assay in C3H10T1/2 cells; type: cell-based, mouse
Description: Alkaline Phosphatase Assay: C3H10T1/2 cells were expanded in T175 flasks; cells at the 13th passage were detached by trypsin/EDTA and diluted in the growth media. The resulting cell suspension was then plated into black clear bottom 384-well plates (Greiner) with 2500 cells/well in 100 μL growth media using a Multi-dropTM liquid delivery system (Titertek Instruments). After an overnight incubation, cells were attached to the bottom of the wells. A stock solution of Compound A in DMSO (500 nL) was delivered into corresponding well using a Mini TrakTM multiposition dispenser system (Packard BioScience) to make the final concentration of 5 μM of each compound. Cells were then incubated at 37° C. in 5% CO2. After 4 days, the media was removed and 10 μL of Passive Lysis Buffer (Promega) was added into each well. After 5 min, 10 μL of alkaline phosphatase substrate solution (1 mM in pH 10 buffer, 2'-[2'-benzothiazoyl]-6'-hydroxybenzothiazole phosphate (Promega) was added to each well. After a 15 minute incubation at room temperature, the plates were read on an Acquest high-throughput plate reader (Molecular Devices) using the manufacturer's protocol. C3H10T1/2 cells were treated with DMSO (control), BMP-4(300 ng/mL), BMP-4 (100 ng/mL) and Compound A (1 μM), or 0.5 μ[…], or 10 μM Compound A. Alkaline phosphatase (ALP) activity was measured as described in Example 2 above, after two, four, and six days of treatment.

[2] = system: Cbfa1/Runx2 gene promoter; assay: Cbfa1/Runx2 reporter gene assay, transiently transfected C3H10T1/2 cells; type: cell-based, mouse
Excerpt: (§1) Cbfa1/Runx2 Reporter Gene Assay: The murine Cbfa1/Runx2 gene promoter region (1818 bp) was amplified by PCR from mouse genomic DNA library (Clontech) using the following primers: The resulting PCR product was inserted into Topo cloning vector (Invitrogen), amplified and sequenced. The resulting plasmid was digested with restriction enzymes Mlu and XhoI (New England Biolab) and the 1.8 kb fragment was inserted into the Mlu/XhoI cloning sites in pGL3-BV luciferase reporter vector (Promega). For transient transfection assays, cells were seeded in a 6-well plate at a density of 30,000 cells/well in 2 mL of growth medium. After an overnight incubation, the cells reached 80% confluency. Plasmid DNA (1 μg) was transfected into cells using 3 μL of Fugene 6 transfection reagent (Roche) using the manufacturer's protocol. After 8 hours, the transfected cells were plated into 96-well assay plates (Corning) and treated with 300 ng/mL of recombinant human bone morphogenetic protein 4 (BMP-4) (Sigma), 1% DMSO (Sigma) or different concentrations of Compound A (dissolved in DMSO). The cells were incubated for 4 days, then the luciferase activity in the cells was assayed using the Bright-Glo luciferase assay kit (Promega) using the manufacturer's protocol. Luminescence signals were detected by Acquest AD (Molecular Devices) plate reader. […]

[3] = system: Cbfa1/Runx2 gene promoter; assay: Cbfa1/Runx2 reporter gene assay, stably transfected MC3T3-E1 cells; type: cell-based, mouse
Excerpt: as §1, with “For transient transfection assays, cells were seeded in a 6-well plate at a density of 30,000 cells/well in 2 mL of growth medium.” left out, “reader. Due to the low transfection efficiency of MC3T3-E1 cells, the Cbfa1/Runx2 reporter assay was carried out with stably transfected MC3T3-E1 cells.” for “reader.”

C3H10T1/2 cells [4] = assay: Histochemical staining for endogenous alkaline phosphatase expression in C3H10T1/2 cells; type: cell-based, mouse; conditions: 4 days; for cells stained positive for ALP: Compound A 2 μM, BMP-4 300 ng/mL
Description: Histochemical Staining for Endogenous Alkaline Phosphatase Expression: C3H10T1/2 cells were seeded in 96-well assay plates (Corning) at a density of 10,000 cells/well, and treated with 300 ng/mL of BMP-4, 1% DMSO, 2 μM of Compound A, or 100 ng/mL of BMP and 1 μM of Compound A for 4 days. The cells were then washed 3 times with 200 μL PBS and fixed by a 15 minute incubation in a 10% formalin solution (Sigma). The fixed cells were washed again with 3 times with 200 μL PBS and stained with the Alkaline Phosphatase Staining Kit 86R (Sigma Diagnostics) using the manufacturer's protocol. The images were taken on a Nikon Eclipse TE300 microscope, and ALP positive cells were counted manually from the images.
C3H10T1/2 cells were treated with DMSO (a), 300 ng/mL of BMP-4 (b), 2 μM of Compound A (c), and 100 ng/mL of BMP and 1 μM of Compound A (d) for 4 days and stained for ALP activity. ALP positive cells were stained red and the cell nuclei were stained blue.

3T3-L1 cells = assay: Alkaline phosphatase (ALP) activity in 3T3-L1 pre-adipocyte cells; type: cell-based, mouse
Description: Alkaline Phosphatase Assay: C3H10T1/2 cells were expanded in T175 flasks; cells at the 13th passage were detached by trypsin/EDTA and diluted in the growth media. The resulting cell suspension was then plated into black clear bottom 384-well plates (Greiner) with 2500 cells/well in 100 μL growth media using a Multi-drop™ liquid delivery system (Titertek Instruments). After an overnight incubation, cells were attached to the bottom of the wells. A stock solution of Compound A in DMSO (500 nL) was delivered into corresponding well using a Mini Trak™ multiposition dispenser system (Packard BioScience) to make the final concentration of 5 μM of each compound. Cells were then incubated at 37° C. in 5% CO2. […] After 5 min, 10 μL of alkaline phosphatase substrate solution (1 mM in pH 10 buffer, 2′-[2′-benzothiazoyl]-6′-hydroxybenzothiazole phosphate (Promega) was added to each well. After a 15 minute incubation at room temperature, the plates were read on an Acquest high-throughput plate reader (Molecular Devices) using the manufacturer's protocol.
(§2) 3T3-L1 cells, C2C12 cells, and MC-3T3E1 cells were treated with DMSO (control), BMP-4(300 ng/mL), BMP-4 (100 ng/mL) and Compound A (1 μM), or 0.1 μM, 0.5 μM, 1 μM, 5 μM, or 10 μM Compound A. ALP activity was measured as described in Example 1 above, after four days of treatment.

[5] = system: Cbfa1/Runx2 gene promoter; assay: Cbfa1/Runx2 reporter gene assay in 3T3-L1 cells; type: cell-based, mouse; conditions: 3T3-L1 pre-adipocyte cells
Excerpt: as §1

[6] = system: Cbfa1/Runx2 gene promoter; assay: Cbfa1/Runx2 reporter gene assay in C2C12 cells; type: cell-based, mouse
Excerpt: as §1

C3H10T1/2 cells [7] = assay: Morphology of C3H10T1/2 cells under light microscopy; type: cell-based, mouse; conditions: 2 μM for 4 days
Description: C3H10T1/2 cells were treated with DMSO (1%) and Compound A (purmorphamine) (2 μM) for 4 days. C2C12 cells were treated with DMSO (1%), Compound A (purmorphamine) (2 μM) or BMP-4 (300 ng/mL) for 4 days. The morphology of the cells was examined under light microscopy.

[8] = system: alkaline phosphatase, collagen type I and osteoponin; assay: Morphological and transcriptional analysis of osteogenesis (FIG. 5); type: cell-based
MC3T3-E1 cells = assay: Terminal differentiation of MC3T3-E1 pre-osteoblast cells; type: cell-based, mouse
Excerpt: Mouse MC3T3-E1 cells are progenitor cells committed to an osteoblast lineage. […] Since MC3T3-E1 cells already have high levels of endogenous Cbfa1/Runx2, slight up-regulation of this gene may be sufficient to promote terminal differentiation (see, e.g., Xiao et al., J. Cell. Biochem. 74:596 (1999) and Wang et al., J. Bone. Miner. Res. 14:893 (1999)). The change of Cbfa1/Runx2 reporter activity in stably transfected MC3T3-E1 cells is not dramatic when treated with Compound A.
as §2

## c1ccc2c(Oc3nc(Nc4ccc(N5CCOCC5)cc4)c4ncn(C5CCCCC5)c4n3)cccc2c1 [Compound A, 2-(1-Naphthoxy)-6-(4-morpholinoanilino)-9-cyclohexylpurine]
C3H10T1/2 cells [1]; C3H10T1/2 cells, FIG. 1
  effectiveness in inducing the expression of ALP compared with BMP-4: more effective than BMP-4
C3H10T1/2 cells [1]; Mus musculus, C3H 10T1/2, ALP enzymatic assay, C3H10T1/2 cells
  EC50: 1000 nM
C3H10T1/2 cells [1]; after treatment for 4 days, compared with 1% DMSO treatment
  increase in ALP: > 50 fold
[2]; C3H10T1/2 cells, FIG. 4B
  Cbfa1 gene upregulation: induces Cbfa1 gene upregulation
[2]; treatment for 4 days, transient transfection
  increase in Cbfa1/Runx2 reporter activity: more than 6 fold
[3]
  change of Cbfa1/Runx2 reporter activity: not dramatic
C3H10T1/2 cells [4]
  cells stained positive for ALP: more than 80%
3T3-L1 cells; optimal concentration of 5 μM
  increase in ALP level: 9 fold
[5]
  Cbfa1/Runx2 expression: induces Cbfa1/Runx2 expression
[6]
  Cbfa1/Runx2 gene expression: can be induced by Compound A to express the Cbfa1/Runx2 gene
C3H10T1/2 cells [7]
  morphology of the cells: changed from fibroblast (long and spindle-shaped) to osteocyte (small and round)
[8]; FIG. 5A
  expression of alkaline phosphatase, collagen type I and osteoponin: induces expression
[8]; FIG. 5B
  DNA microarray analysis: induces expression of a number of transcription factors and proteins
MC3T3-E1 cells
  terminal differentiation of MC3T3-E1 cells: promote the terminal differentiation

B1: BMP-4: recombinant human bone morphogenetic protein 4 (BMP-4) (Sigma) (protein, UniProt P12644 293-408, looked up)
Bone morphogenetic protein 4: SPKHHSQRARKKNKNCRRHSLYVDFSDVGWNDWIVAPPGYQAFYCHGDCPFPLADHLNSTNHAIVQTLVNSVNSSIPKACCVPTELSAISMLYLDEYDKVVLKNYQEMVVEGCGCR
C3H10T1/2 cells [4]
  cells stained positive for ALP: 40%
C3H10T1/2 cells [4]; histochemical staining
  ALP expression level of induced cells compared to cells treated with Compound A: higher expression level of ALP
3T3-L1 cells; BMP-4 alone
  induction of ALP expression: more than 40 fold
MC3T3-E1 cells
  terminal differentiation of MC3T3-E1 cells: promote the terminal differentiation

Reference: US7273864B2, “Compositions and methods for inducing osteogenesis” (The Scripps Research Institute, priority 2002, dated 2007)
